Results: PubChem BioAssay AID720608 (Broad Institute, 2013)
Records with an inconclusive call do not appear.

Tested on: SR lymphoma cells viability, CellTiter-Glo ATP, 8-48 h
Assay: cytotoxicity in SR immunoblastic lymphoma cells – cell-based, CellTiter-Glo ATP luminescence, 8-48 h, dry powder, mechanism study for HRAS target identification, late-stage follow-up (AID 720608)

Compound	AC50 (measured here: 8 h treatment) [µM]	AC50 (measured here: 24 h treatment) [µM]	AC50 (measured here: 48 h treatment) [µM]
COc1ccc(N(C(=O)CCl)C(C(=O)NCCc2ccccc2)c2cccs2)cc1Cl (stereo not given)	0.119	0.0468	0.0423
CC(C)(C)OC(=O)NCCOCCOCCOc1ccc(N(C(=O)CCl)C(C(=O)NCCc2ccccc2)c2cccs2)cc1Cl (stereo not given)	0.265	0.0611	0.0531
C#CCCCC(=O)NCCOCCOCCOc1ccc(N(C(=O)CCl)C(C(=O)NCCc2ccccc2)c2cccs2)cc1Cl (stereo not given)	2.43	0.406	0.703
COC(=O)c1ccc([C@@H]2c3[nH]c4ccccc4c3C[C@@H](C(=O)OC)N2C(=O)CCl)cc1	0.112	0.0171	0.0186
Cc1onc(C(=O)N2CCN(C(c3ccc(Cl)cc3)c3ccc(Cl)cc3)CC2)c1[N+](=O)[O-]	0.364	0.0804	0.0979
